The record followed here is patent US10442763B2, “EBNA1 inhibitors and methods using same” (priority 2015, dated 2019).

pIC50: −log10 of the molar value.

By pIC50 is commonly meant the negative decadic logarithm of the IC50, by convention in mol/L. Low readings indicate a high IC50, high ones a low IC50.

The target of the assay is T1, His-EBNA1 (DNA binding domain of EBNA1, amino acids 459-607) (Epstein-Barr virus, UniProt P03211).
T1 construct: made in house; host or cells: E. coli
T1 sequence (P03211 459-607): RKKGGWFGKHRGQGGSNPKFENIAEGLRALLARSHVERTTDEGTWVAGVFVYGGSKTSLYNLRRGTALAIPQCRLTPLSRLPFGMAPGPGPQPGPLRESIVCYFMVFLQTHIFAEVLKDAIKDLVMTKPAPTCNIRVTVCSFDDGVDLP
Put plainly: Inhibition of 5'-biotin-oPL4624 binding to His-EBNA1 using Alpha Screen technology. An outline of the steps:
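AlphaScreen with 15 nM E. coli-expressed His-EBNA1 (aa 459-607), 0.2 nM biotinylated oPL4624 DNA and 5 μg/mL donor and acceptor beads in 25 mM Tris pH 7.2, 160 mM NaCl, 1 mM MgCl2; compound 3.2 nM–100 μM final. Read after 2 h at RT; inhibition normalised to no-EBNA1 wells, one-site dose-response fit.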
On the technique in general: Alpha assays give light when donor and acceptor beads are brought close together.
The compound `O=C(O)c1cccc(C#Cc2ccc(CN3CCN(C4CCCCC4)CC3)cc2)c1-c1ccc2cc[nH]c2c1` [Entry 165] gave a pIC50 of 4.00 to 5.00.

Consider `O=C(O)c1cccc(C#Cc2ccc(CN3CCN(C(=O)C4CC4)CC3)cc2)c1-c1ccc2cc[nH]c2c1` [Entry 166], for which the pIC50 is 5.00 to 6.00.

`O=C(O)c1cccc(C#Cc2ccc(CN3CCNCC3)cc2)c1-c1ccc2cc[nH]c2c1` [Entry 167] had a pIC50 of 4.00 to 5.00.

For `O=C(O)c1cccc(C#Cc2ccc(CN3CCN(S(=O)(=O)c4ccccc4)CC3)cc2)c1-c1ccc2cc[nH]c2c1` [Entry 168], the pIC50 was 5.00 to 6.00.

For the compound `O=C(O)c1cccc(C#Cc2ccc(CNC3CCS(=O)(=O)CC3)cc2)c1-c1ccc2cc[nH]c2c1` [Entry 169], the pIC50 is 4.00 to 5.00.

In turn, `O=C(O)c1cccc(C#Cc2ccc(CN3CCN(C4CCCC4)CC3)cc2)c1-c1ccc2cc[nH]c2c1` [Entry 170] showed a pIC50 of 4.00 to 5.00.

The compound `CN(C)C(=O)N1CCN(Cc2ccc(C#Cc3cccc(C(=O)O)c3-c3ccc4cc[nH]c4c3)cc2)CC1` [Entry 171] gave a pIC50 of 4.00 to 5.00.

`O=C(O)c1cccc(C#Cc2ccc(CN3CCN(c4cnccn4)CC3)cc2)c1-c1ccc2cc[nH]c2c1` [Entry 172] had a pIC50 of 5.00 to 6.00.

Take `O=C(O)c1cccc(C#Cc2ccc(CN3CCN(c4nccs4)CC3)cc2)c1-c1ccc2cc[nH]c2c1` [Entry 173]: the pIC50 was 5.00 to 6.00.

Compound `Nc1nc2c(s1)C[C@@H](NCc1ccc(C#Cc3cccc(C(=O)O)c3-c3ccc4cc[nH]c4c3)cc1)CC2` [Entry 174] showed a pIC50 of 5.00 to 6.00.

The compound `Nc1nc2c(s1)C[C@H](NCc1ccc(C#Cc3cccc(C(=O)O)c3-c3ccc4cc[nH]c4c3)cc1)CC2` [Entry 175] gave a pIC50 of 5.00 to 6.00.

`CN1CCN(Cc2ccc(C#Cc3cccc(C(=O)O)c3-c3cnc4[nH]ccc4c3)cc2)CC1` [Entry 176] showed a pIC50 of 4.00 to 5.00.

As to `COC1CCN(Cc2ccc(C#Cc3cccc(C(=O)O)c3-c3cnc4[nH]ccc4c3)cc2)CC1` [Entry 177], the pIC50 was 3.00 to 4.00.

As to `COC1CCN(Cc2ccc(C#Cc3cccc(C(=O)O)c3-c3ccc4[nH]ccc4c3)cc2)CC1` [Entry 178], the pIC50 is 4.00 to 5.00.

The compound `CS(=O)(=O)N1CCN(Cc2ccc(C#Cc3cccc(C(=O)O)c3-c3ccc4[nH]ccc4c3)cc2)CC1` [Entry 179] showed a negative logarithm of the IC50 (pIC50) of 4.00 to 5.00.

`CS(=O)(=O)N1CCN(Cc2ccc(C#Cc3cccc(C(=O)O)c3-c3cnc4[nH]ccc4c3)cc2)CC1` [Entry 180] gave a pIC50 of 5.00 to 6.00.

Turning to `O=C(O)c1cccc(C#Cc2ccc(CN3CCC(F)(F)CC3)cc2)c1-c1ccc2[nH]ccc2c1` [Entry 181], the pIC50 is 5.00 to 6.00.

`CN1CCN(Cc2ccc(C#Cc3cccc(C(=O)O)c3-c3ccc4[nH]ccc4c3)cc2)CC1` [Entry 182] showed a pIC50 of 5.00 to 6.00.

Consider `CCS(=O)(=O)N1CCN(Cc2ccc(C#Cc3cccc(C(=O)O)c3-c3ccc4cc[nH]c4c3)cc2)CC1` [Entry 183], for which the pIC50 is 4.00 to 5.00.

For `O=C(O)c1cccc(C#Cc2ccc(OC3CCS(=O)(=O)CC3)cc2)c1-c1ccc2[nH]ccc2c1` [Entry 184], the pIC50 was 5.00 to 6.00.

Regarding `O=C(O)c1cccc(C#Cc2ccc(OC3CCS(=O)(=O)CC3)cc2)c1-c1ccc2cn[nH]c2c1` [Entry 185], the pIC50 was 4.00 to 5.00.

For `O=C(O)c1cccc(C#Cc2ccc(COC3CCOCC3)cc2F)c1-c1ccc2cc[nH]c2c1` [Entry 186], the pIC50 is 5.00 to 6.00.

In the case of `O=C(O)c1cccc(C#Cc2ccc(COC3CCS(=O)(=O)CC3)cc2F)c1-c1ccc2cc[nH]c2c1` [Entry 187], the pIC50 was 4.00 to 5.00.

`CS(=O)(=O)N1CC2(CCN(Cc3ccc(C#Cc4cccc(C(=O)O)c4-c4ccc5cc[nH]c5c4)cc3)CC2)C1` [Entry 188]: the pIC50 is 4.00 to 5.00.

With `CS(=O)(=O)N1CC2CN(Cc3ccc(C#Cc4cccc(C(=O)O)c4-c4ccc5cc[nH]c5c4)cc3)CC2C1` (centres unmarked) [Entry 189], the pIC50 is 4.00 to 5.00.

`O=C(O)c1cccc(C#Cc2ccc(CN3CCN(S(=O)(=O)C4CC4)CC3)cc2)c1-c1ccc2cc[nH]c2c1` [Entry 190] showed a pIC50 of 4.00 to 5.00.
